In US20050288187A1, “Inhibitor development for 4-hydroxyphenylpyruvate dioxygenase, employing tyrosinemia 1 as a model for human diseases mediated by 2-oxoacid utilizing dioxygenases” (priority 2002, published 2005):

Experiments:
prolyl 4-hydroxylase = details: U.S. Pat. Nos. 5,789,426; 5,965,585; 5,965,586; cited from earlier work
P4-H [1] = assay: Collagen-derived serum biomarkers (PIIINP, NC1, NTD) for P4-H activity in a tyrosinemia I patient during NTBC treatment; format: in vivo, human
Description: A total of ten biomarkers were monitored from just before initiation of NTBC medication to up to 103 days of treatment, generating a total of 60 data points. […] P4-H activity was assessed via specific antigens released from three different groups of collagens, all of which are substrates for this enzyme. These biomarkers, quantified by specific radioimmunoassay, consisted of PIIINP, an indicator for the fibril-forming collagen type III; NC1, a marker for the sheet-forming collagen type IV; and NTD, an indicator for the beaded filament-forming collagen type VI. The P1 antigen, derived from the non-collagenous protein laminin and thus not dependent on P4-H activity, served as control.

P4-H [2] = details: one other tyrosinemic child (Pitkanen et al. 1999); cited from earlier work
laminin P1 antigen = assay: Control biomarker P1 antigen of laminin (P4-H independent) during NTBC treatment; format: in vivo, human; details: P4-H independent protein
Description: Inherit Metab. […] Res. 39:[…]

Structure (SMILES)	inhibition of prolyl 4-hydroxylase (prolyl 4-hydroxylase)	NCI (collagen type IV biomarker) rise over initial value (P4-H [1]; after 103 days on NTBC) [factor]	NTC (collagen type VI biomarker) rise over initial value (P4-H [1]; after 103 days on NTBC) [factor]	biomarkers for P4-H activity (PIIINP, NC1, NTD), response to NTBC (P4-H [1]; three months study period)	initially elevated PIIINP level, response to treatment with NTBC (P4-H [2])	laminin P1 antigen, response to NTBC treatment (laminin P1 antigen)
Cc1c(O)c(=O)ccn1C [DMHP, 1,2-dimethyl-3-hydroxypyrid-4-one]	known inhibitors of prolyl 4-hydroxylase					
O=C1CCCC(=O)C1C(=O)c1ccc(C(F)(F)F)cc1[N+](=O)[O-] [NTBC, 2-(2-nitro-4-trifluoromethylbenzoyl)-cyclohexane-1,3-dione]		1.1	1.1	entirely unresponsive	non-responsive	unresponsive
